Patent publication US20210349099A1, “CANCER BIOMARKERS AND METHODS OF USE THEREOF” (X4 Pharmaceuticals, Inc., priority 2017, published 2021)

Tests used:
[1] = system: B16-OVA tumor microenvironment; assay: Flow cytometry of immune cell populations in B16-OVA tumor tissue; type: in vivo, C57BL/6 mice
Description: Single cell suspensions were prepared from tumor tissues by treating with collagenase and analyzing for various immune cell populations using flow cytometry. Cell surface markers included CD3, CD8, Perforin, CD15CD11b (MDSC), and FoxP3 (Treg). […] The enhancement was even greater for combination therapy with anti-PD-1.

[2] = system: melanoma, renal cell carcinoma, and ovarian cancer; details: murine models; cited from earlier work
in vivo = assay: in vivo
Description: In certain embodiments, the dosage composition may be provided twice a day in divided dosage, approximately 12 hours apart. In other embodiments, the dosage composition may be provided once daily. […] Dosage for oral administration may be from about 100 mg to about 1200 mg once or twice per day.

melanoma biopsy samples = assay: VISTA panel staining of melanoma biopsies (CD163, CD206, VISTA, COX-2, CD3, B7H3); type: in vivo, human
Source text: Biopsy samples were obtained at baseline (top row) and at the end of […]-001 monotherapy (bottom row). […] The right column contains higher magnification views of the boxed regions in the center panel.

[3] = end of X4P-001 monotherapy vs baseline

## NCCCCN(Cc1nc2ccccc2[nH]1)[C@H]1CCCc2cccnc21 [X4P-001]
[1]
  suppressor cell counts (Tregs and MDSC): substantially decreased
[2]
  anti-tumor activity: significant anti-tumor activity, including decreased metastasis and increased overall survival
In vivo
  terminal half-life: approximately 14.5 hrs
In vivo; terminal half-life
  half-life: 12 to 24 h
Melanoma biopsy samples; Week 4, ROI Non-Tumor, Day 1 2.07
  COX-2/mm^2: 1.22 /mm^2
Melanoma biopsy samples; Week 4, ROI Non-Tumor, Day 1 252.20
  CD206/mm^2: 199.30 /mm^2
Melanoma biopsy samples; Week 4, ROI Non-Tumor, Day 1 400.31
  CD3/mm^2: 494.97 /mm^2
Melanoma biopsy samples; Week 4, ROI Non-Tumor, Day 1 410.11
  VISTA/mm^2: 144.72 /mm^2
Melanoma biopsy samples; Week 4, ROI Non-Tumor, Day 1 514.86
  CD163/mm^2: 467.25 /mm^2
Melanoma biopsy samples; Week 4, ROI Non-Tumor, Day 1 615.63
  B7H3/mm^2: 980.49 /mm^2
Melanoma biopsy samples; Week 4, ROI Non-Tumor, Day 1 2057.63
  Cells/mm^2: 2217.73 /mm^2
Melanoma biopsy samples; Week 4, ROI Tumor, Day 1 3.40
  COX-2/mm^2: 2.98 /mm^2
Melanoma biopsy samples; Week 4, ROI Tumor, Day 1 239.91
  CD3/mm^2: 1050.68 /mm^2
Melanoma biopsy samples; Week 4, ROI Tumor, Day 1 264.79
  CD206/mm^2: 161.25 /mm^2
Melanoma biopsy samples; Week 4, ROI Tumor, Day 1 426.51
  CD163/mm^2: 661.21 /mm^2
Melanoma biopsy samples; Week 4, ROI Tumor, Day 1 2640.08
  VISTA/mm^2: 852.86 /mm^2
Melanoma biopsy samples; Week 4, ROI Tumor, Day 1 4826.36
  B7H3/mm^2: 3952.27 /mm^2
Melanoma biopsy samples; Week 4, ROI Tumor, Day 1 5758.23
  Cells/mm^2: 5297.64 /mm^2
Melanoma biopsy samples; Week 4, ROI Whole Tissue, Day 1 2.87
  COX-2/mm^2: 1.97 /mm^2
Melanoma biopsy samples; Week 4, ROI Whole Tissue, Day 1 259.38
  CD206/mm^2: 182.26 /mm^2
Melanoma biopsy samples; Week 4, ROI Whole Tissue, Day 1 308.53
  CD3/mm^2: 738.82 /mm^2
Melanoma biopsy samples; Week 4, ROI Whole Tissue, Day 1 464.86
  CD163/mm^2: 552.27 /mm^2
Melanoma biopsy samples; Week 4, ROI Whole Tissue, Day 1 1673.17
  VISTA/mm^2: 457.53 /mm^2
Melanoma biopsy samples; Week 4, ROI Whole Tissue, Day 1 2998.14
  B7H3/mm^2: 2288.84 /mm^2
Melanoma biopsy samples; Week 4, ROI Whole Tissue, Day 1 4149.31
  Cells/mm^2: 3572.93 /mm^2
Melanoma biopsy samples; [3]
  expression of VISTA: decreased expression
  numbers of CD3+ cells within tumor borders: increased numbers
